# Measurements: patent publication US20130165472A1, “HETEROARYLS AND USES THEREOF” (MILLENNIUM PHARMACEUTICALS, INC., priority 2011, published 2013)
# Molecular target: T1, VPS34 (Homo sapiens, UniProt Q8NEB9)
# T1 construct: GST (N); host or cells: SF9 insect cells (baculovirus)
# Assay: Human VPS34 enzyme assay (Adapta TR-FRET)
# Format: biochemical
# Conditions: for VPS34 Percent Inhibition: at a 1.11 μM concentration
# Description: VPS34 (accession number GB:BC033004) was cloned into pDEST20-Thombin as N-terminal GST tagged fusion proteins using the Gateway system (Invitrogen, catalog#11804-013). The sequences were verified before recombinant protein expression using the Baculovirus Expression System with Gateway® Technology.
# For expression VPS34 was infected at 1MOI in SF9 cells and harvested 72 hours post infection.
# For purification, VPS34 is purified by Glutathione Sepharose 4 Fast Flow (GE Healthcare #17-5132-03) followed by HiTrap Q (GE Healthcare #17-1153-01).
# Human VPS34 Enzyme Assay Method
# […] compounds in DMSO are added to wells of a 384 well microtitre plate (Greiner 780076). At room temperature: 5 ul VPS34 reaction buffer (Invitrogen Assay Buffer Q (diluted 1 in 5 with nanopure water) plus 2 mM DTT and 2 mM MnCl2) containing ATP (20 uM, Promega) and 200 uM PI-PS substrate (Invitrogen PV5122) is added followed immediately by 5 ul VPS34 reaction buffer (as above) containing VPS34 (5 nM, Millennium Protein Sciences Group) and the mixture is incubated with shaking at room temperature for 1 hour. Then 5 ul VPS34 stop-detect mix (as per Invitrogen Adapta Assay kit (PV5009) instructions (contains kinase quench buffer, TR-FRET buffer, Adapta Eu anti-ADP antibody and Alexa Fluor 647 ADP tracer)) is added to quench the reaction. The plates are then incubated for 30 minutes at room temperature with shaking and then read on a BMG PheraStar Plus reader.
# For the assay methods described above, test compound percent inhibition, at various concentrations, is calculated relative to control (DMSO and EDTA) treated samples. Compound concentration versus percent inhibition curves are fitted to generate IC50 values. One skilled in the art will appreciate that the values generated either as percentage inhibition at a single concentration or IC50 values are subject to experimental variation.
# 3) VPS34 is assayed using Adapta™ Universal Kinase Assay Kit (Invitrogen).
# T1 sequence (Q8NEB9 whole entry): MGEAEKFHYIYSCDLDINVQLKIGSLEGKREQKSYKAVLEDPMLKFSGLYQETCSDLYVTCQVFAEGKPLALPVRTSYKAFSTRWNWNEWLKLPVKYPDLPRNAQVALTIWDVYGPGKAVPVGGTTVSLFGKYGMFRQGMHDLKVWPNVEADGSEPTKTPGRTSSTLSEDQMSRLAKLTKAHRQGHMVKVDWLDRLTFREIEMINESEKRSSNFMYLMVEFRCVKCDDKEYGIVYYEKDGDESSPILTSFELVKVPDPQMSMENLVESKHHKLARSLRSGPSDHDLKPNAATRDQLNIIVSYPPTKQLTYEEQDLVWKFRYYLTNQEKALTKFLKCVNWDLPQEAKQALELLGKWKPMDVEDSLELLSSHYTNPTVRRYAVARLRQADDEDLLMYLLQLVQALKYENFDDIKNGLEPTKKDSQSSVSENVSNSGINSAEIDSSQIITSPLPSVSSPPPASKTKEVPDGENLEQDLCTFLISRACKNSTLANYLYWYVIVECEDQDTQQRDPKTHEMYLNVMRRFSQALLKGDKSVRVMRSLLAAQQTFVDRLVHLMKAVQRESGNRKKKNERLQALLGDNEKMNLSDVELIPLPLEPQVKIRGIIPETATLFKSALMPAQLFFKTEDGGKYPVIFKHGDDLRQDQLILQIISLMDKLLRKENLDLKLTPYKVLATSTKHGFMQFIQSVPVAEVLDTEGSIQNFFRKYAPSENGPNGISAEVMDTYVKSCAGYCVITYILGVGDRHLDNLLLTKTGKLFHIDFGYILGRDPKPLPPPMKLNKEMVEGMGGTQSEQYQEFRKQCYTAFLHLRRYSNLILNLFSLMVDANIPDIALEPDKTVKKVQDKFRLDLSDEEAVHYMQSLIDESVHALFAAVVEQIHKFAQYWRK
Compound,IC50,VPS34 Percent Inhibition
"CC(=O)Nc1cc(-c2cn(-c3ccc(Cl)cc3Cl)c(-c3ccn[nH]3)n2)c(C)cn1 [Compound I-16, N-{4-[1-(2,4-dichlorophenyl)-2-(1H-pyrazol-5-yl)-1H-imidazol-4-yl]-5-methylpyridin-2-yl}acetamide]",1000 to 3000 nM,35
"CC(=O)Nc1cc(-c2nc(-c3ccc(Cl)cc3Cl)c(C(N)=O)[nH]2)ccn1 [Compound I-19, 2-(2-acetamidopyridin-4-yl)-4-(2,4-dichlorophenyl)-1H-imidazole-5-carboxamide]",1000 to 3000 nM,28
"CC(=O)Nc1cc(-c2cn(-c3ccc(Cl)cc3Cl)c(-c3ccn[nH]3)n2)ccn1 [Compound I-10, N-{4-[1-(2,4-dichlorophenyl)-2-(1H-pyrazol-5-yl)-1H-imidazol-4-yl]pyridin-2-yl}acetamide]",1000 to 3000 nM,27
"CC(=O)Nc1cc(-c2cn(-c3ccccn3)c(-c3ccccc3Cl)n2)ccn1 [Compound I-105, N-{4-[2-(2-chlorophenyl)-1-(pyridin-2-yl)-1H-imidazol-4-yl]pyridin-2-yl}acetamide]",300 to 1000 nM,55
"CC(=O)Nc1cc2c(ccn3c(C(N)=O)c(-c4ccc(Cl)cc4Cl)nc23)cn1 [Compound I-24, 9-acetamido-2-(2,4-dichlorophenyl)imidazo[2,1-a][2,6]naphthyridine-3-carboxamide]",< 300 nM,>99
